Where a name gives a salt, the structure may show the parent alone.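 How tested: cells in 96-well plates exposed to compound for 48 hours at five concentrations. Abbreviation: GI50, concentration required for 50% inhibition of growth.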 Activity calls are given as the source filed them. No stated cut-off is given here; in the data, active = GI50 up to about 1.1 µM and inactive = higher.
Key:
Assay in all cases: DTP human tumour cell line panel, 48 h
786-0 = tested on: 786-0
A498 = tested on: A498
A549 = tested on: A549
ACHN = tested on: ACHN
BT-549 = tested on: BT-549
CAKI-1 = tested on: CAKI-1
CCRF-CEM = tested on: CCRF-CEM
COLO 205 = tested on: COLO 205
DU-145 = tested on: DU-145
EKVX = tested on: EKVX
HCT-116 = tested on: HCT-116
HCT-15 = tested on: HCT-15
HL-60 = tested on: HL-60
HOP-62 = tested on: HOP-62
HOP-92 = tested on: HOP-92
HT-29 = tested on: HT-29
Hs-578T = tested on: Hs-578T
IGROV-1 = tested on: IGROV-1
K562 = tested on: K562
KM12 = tested on: KM12
LOX IMVI = tested on: LOX IMVI
M14 = tested on: M14
MCF7 = tested on: MCF7
MDA-MB-231 = tested on: MDA-MB-231
MDA-MB-435 = tested on: MDA-MB-435
MDA-N = tested on: MDA-N
MOLT-4 = tested on: MOLT-4
Malme-3M = tested on: Malme-3M
NCI-H226 = tested on: NCI-H226
NCI-H23 = tested on: NCI-H23
NCI-H522 = tested on: NCI-H522
NCI/ADR-RES = tested on: NCI/ADR-RES
OVCAR-3 = tested on: OVCAR-3
OVCAR-4 = tested on: OVCAR-4
OVCAR-5 = tested on: OVCAR-5
OVCAR-8 = tested on: OVCAR-8
PC-3 = tested on: PC-3
RPMI-8226 = tested on: RPMI-8226
RXF 393 = tested on: RXF 393
SF-268 = tested on: SF-268
SF-295 = tested on: SF-295
SK-MEL-28 = tested on: SK-MEL-28
SK-MEL-2 = tested on: SK-MEL-2
SK-MEL-5 = tested on: SK-MEL-5
SK-OV-3 = tested on: SK-OV-3
SN12C = tested on: SN12C
SNB-75 = tested on: SNB-75
SR = tested on: SR
SW-620 = tested on: SW-620
T47D = tested on: T47D
TK-10 = tested on: TK-10
U-251 = tested on: U-251
UACC-257 = tested on: UACC-257
UACC-62 = tested on: UACC-62
UO-31 = tested on: UO-31
NCI-H460 = tested on: NCI-H460
SF-539 = tested on: SF-539
SNB-19 = tested on: SNB-19

**Q.** How did the GI50 (786-0) turn out when `O=C1CCCC(=O)N1n1c(Cc2ccccc2)n[nH]c1=O` was run?
**A.** > 100 µM (inactive)

**Q.** And the GI50 (A498)?
**A.** > 100 µM (inactive)

**Q.** And the GI50 (A549)?
**A.** > 100 µM (inactive)

**Q.** And the GI50 (ACHN)?
**A.** > 100 µM (inactive)

**Q.** What about the GI50 (BT-549) of the same compound?
**A.** > 100 µM (inactive)

**Q.** What about the GI50 (CAKI-1) of the same compound?
**A.** > 100 µM (inactive)

**Q.** And the GI50 (CCRF-CEM)?
**A.** > 100 µM (inactive)

**Q.** What about the GI50 (COLO 205) of the same compound?
**A.** > 100 µM (inactive)

**Q.** And the GI50 (DU-145)?
**A.** > 100 µM (inactive)

**Q.** And the GI50 (EKVX)?
**A.** > 100 µM (inactive)

**Q.** And the GI50 (HCT-116)?
**A.** > 100 µM (inactive)

**Q.** And the GI50 (HCT-15)?
**A.** > 100 µM

**Q.** And the GI50 (HL-60)?
**A.** > 100 µM (inactive)

**Q.** And the GI50 (HOP-62)?
**A.** > 100 µM (inactive)

**Q.** What about the GI50 (HOP-92) of the same compound?
**A.** > 100 µM (inactive)

**Q.** What about the GI50 (HT-29) of the same compound?
**A.** > 100 µM (inactive)

**Q.** What about the GI50 (Hs-578T) of the same compound?
**A.** > 100 µM (inactive)

**Q.** And the GI50 (IGROV-1)?
**A.** > 100 µM (inactive)

**Q.** And the GI50 (K562)?
**A.** > 100 µM (inactive)

**Q.** What about the GI50 (KM12) of the same compound?
**A.** > 100 µM (inactive)

**Q.** What about the GI50 (LOX IMVI) of the same compound?
**A.** > 100 µM (inactive)

**Q.** And the GI50 (M14)?
**A.** > 100 µM (inactive)

**Q.** What about the GI50 (MCF7) of the same compound?
**A.** > 100 µM (inactive)

**Q.** And the GI50 (MDA-MB-231)?
**A.** > 100 µM (inactive)

**Q.** What about the GI50 (MDA-MB-435) of the same compound?
**A.** > 100 µM (inactive)

**Q.** What about the GI50 (MDA-N) of the same compound?
**A.** > 100 µM (inactive)

**Q.** What about the GI50 (MOLT-4) of the same compound?
**A.** > 100 µM (inactive)

**Q.** And the GI50 (Malme-3M)?
**A.** > 100 µM (inactive)

**Q.** And the GI50 (NCI-H226)?
**A.** > 100 µM (inactive)

**Q.** What about the GI50 (NCI-H23) of the same compound?
**A.** > 100 µM (inactive)

**Q.** And the GI50 (NCI-H522)?
**A.** > 100 µM (inactive)

**Q.** And the GI50 (NCI/ADR-RES)?
**A.** > 100 µM (inactive)

**Q.** What about the GI50 (OVCAR-3) of the same compound?
**A.** > 100 µM (inactive)

**Q.** What about the GI50 (OVCAR-4) of the same compound?
**A.** > 100 µM (inactive)

**Q.** And the GI50 (OVCAR-5)?
**A.** > 100 µM (inactive)

**Q.** And the GI50 (OVCAR-8)?
**A.** > 100 µM (inactive)

**Q.** And the GI50 (PC-3)?
**A.** > 100 µM (inactive)

**Q.** What about the GI50 (RPMI-8226) of the same compound?
**A.** > 100 µM (inactive)

**Q.** What about the GI50 (RXF 393) of the same compound?
**A.** > 100 µM (inactive)

**Q.** What about the GI50 (SF-268) of the same compound?
**A.** > 100 µM (inactive)

**Q.** What about the GI50 (SF-295) of the same compound?
**A.** > 100 µM (inactive)

**Q.** What about the GI50 (SK-MEL-28) of the same compound?
**A.** > 100 µM (inactive)

**Q.** And the GI50 (SK-MEL-2)?
**A.** > 100 µM (inactive)

**Q.** And the GI50 (SK-MEL-5)?
**A.** > 100 µM (inactive)

**Q.** What about the GI50 (SK-OV-3) of the same compound?
**A.** > 100 µM (inactive)

**Q.** What about the GI50 (SN12C) of the same compound?
**A.** > 100 µM (inactive)

**Q.** What about the GI50 (SNB-75) of the same compound?
**A.** > 100 µM (inactive)

**Q.** What about the GI50 (SR) of the same compound?
**A.** > 100 µM (inactive)

**Q.** What about the GI50 (SW-620) of the same compound?
**A.** > 100 µM (inactive)

**Q.** And the GI50 (T47D)?
**A.** > 100 µM (inactive)

**Q.** What about the GI50 (TK-10) of the same compound?
**A.** > 100 µM (inactive)

**Q.** And the GI50 (U-251)?
**A.** > 100 µM (inactive)

**Q.** What about the GI50 (UACC-257) of the same compound?
**A.** > 100 µM (inactive)

**Q.** What about the GI50 (UACC-62) of the same compound?
**A.** > 100 µM (inactive)

**Q.** And the GI50 (UO-31)?
**A.** > 100 µM (inactive)

**Q.** `Oc1ccc(C(O)C2CCCCN2)cc1O` (stereo not given) [RIMITEROL HYDROBROMIDE] was tested. Which GI50 (786-0) did it give?
**A.** 18.9 µM (inactive)

**Q.** And the GI50 (A498)?
**A.** > 100 µM (inactive)

**Q.** And the GI50 (A549)?
**A.** > 100 µM (inactive)

**Q.** And the GI50 (ACHN)?
**A.** > 100 µM (inactive)

**Q.** And the GI50 (BT-549)?
**A.** > 100 µM (inactive)

**Q.** And the GI50 (CAKI-1)?
**A.** > 100 µM (inactive)

**Q.** What about the GI50 (COLO 205) of the same compound?
**A.** > 100 µM (inactive)

**Q.** What about the GI50 (DU-145) of the same compound?
**A.** > 100 µM (inactive)

**Q.** And the GI50 (EKVX)?
**A.** > 100 µM (inactive)

**Q.** What about the GI50 (HCT-116) of the same compound?
**A.** > 100 µM (inactive)

**Q.** What about the GI50 (HCT-15) of the same compound?
**A.** > 100 µM

**Q.** And the GI50 (HOP-62)?
**A.** > 100 µM (inactive)

**Q.** What about the GI50 (HOP-92) of the same compound?
**A.** > 100 µM (inactive)

**Q.** And the GI50 (HT-29)?
**A.** > 100 µM (inactive)

**Q.** And the GI50 (Hs-578T)?
**A.** > 100 µM (inactive)

**Q.** What about the GI50 (IGROV-1) of the same compound?
**A.** > 100 µM (inactive)

**Q.** What about the GI50 (K562) of the same compound?
**A.** > 100 µM (inactive)

**Q.** And the GI50 (KM12)?
**A.** > 100 µM (inactive)

**Q.** What about the GI50 (LOX IMVI) of the same compound?
**A.** 28.4 µM (inactive)

**Q.** What about the GI50 (M14) of the same compound?
**A.** > 100 µM (inactive)

**Q.** What about the GI50 (MCF7) of the same compound?
**A.** > 100 µM (inactive)

**Q.** And the GI50 (MDA-MB-231)?
**A.** > 100 µM (inactive)

**Q.** And the GI50 (MDA-MB-435)?
**A.** > 100 µM (inactive)

**Q.** What about the GI50 (MDA-N) of the same compound?
**A.** > 100 µM (inactive)

**Q.** What about the GI50 (Malme-3M) of the same compound?
**A.** > 100 µM (inactive)

**Q.** And the GI50 (NCI-H226)?
**A.** > 100 µM (inactive)

**Q.** And the GI50 (NCI-H23)?
**A.** > 100 µM (inactive)

**Q.** And the GI50 (NCI-H460)?
**A.** > 100 µM (inactive)

**Q.** What about the GI50 (NCI-H522) of the same compound?
**A.** > 100 µM (inactive)

**Q.** And the GI50 (NCI/ADR-RES)?
**A.** > 100 µM (inactive)

**Q.** And the GI50 (OVCAR-3)?
**A.** > 100 µM (inactive)

**Q.** What about the GI50 (OVCAR-4) of the same compound?
**A.** > 100 µM (inactive)

**Q.** And the GI50 (OVCAR-5)?
**A.** > 100 µM (inactive)

**Q.** What about the GI50 (OVCAR-8) of the same compound?
**A.** > 100 µM (inactive)

**Q.** And the GI50 (PC-3)?
**A.** > 100 µM (inactive)

**Q.** What about the GI50 (RPMI-8226) of the same compound?
**A.** 54.7 µM (inactive)

**Q.** And the GI50 (RXF 393)?
**A.** > 100 µM (inactive)

**Q.** What about the GI50 (SF-268) of the same compound?
**A.** > 100 µM (inactive)

**Q.** What about the GI50 (SF-295) of the same compound?
**A.** > 100 µM (inactive)

**Q.** What about the GI50 (SF-539) of the same compound?
**A.** > 100 µM (inactive)

**Q.** And the GI50 (SK-MEL-28)?
**A.** > 100 µM (inactive)

**Q.** What about the GI50 (SK-MEL-2) of the same compound?
**A.** > 100 µM (inactive)

**Q.** What about the GI50 (SK-MEL-5) of the same compound?
**A.** > 100 µM (inactive)

**Q.** What about the GI50 (SK-OV-3) of the same compound?
**A.** > 100 µM (inactive)

**Q.** What about the GI50 (SN12C) of the same compound?
**A.** > 100 µM (inactive)

**Q.** What about the GI50 (SNB-19) of the same compound?
**A.** > 100 µM (inactive)

**Q.** What about the GI50 (SNB-75) of the same compound?
**A.** > 100 µM (inactive)

**Q.** And the GI50 (SR)?
**A.** 71 µM (inactive)

**Q.** And the GI50 (SW-620)?
**A.** 46.7 µM (inactive)

**Q.** What about the GI50 (T47D) of the same compound?
**A.** 23.8 µM (inactive)

**Q.** What about the GI50 (TK-10) of the same compound?
**A.** > 100 µM (inactive)

**Q.** And the GI50 (U-251)?
**A.** > 100 µM (inactive)

**Q.** And the GI50 (UACC-257)?
**A.** 57.4 µM (inactive)

**Q.** And the GI50 (UACC-62)?
**A.** > 100 µM (inactive)

**Q.** And the GI50 (UO-31)?
**A.** 32.1 µM (inactive)

Source: ChEMBL document CHEMBL1201862, “PubChem BioAssay data set” (2004)
